Entries after “also recorded” stand apart in the source; their conditions may differ.
Experiments:
[1] = target: T1, ∆N∆C-IDFP LCAT (Homo sapiens, UniProt P04180); assay: Differential scanning fluorimetry; format: binding
T1 construct: ∆N∆C-LCAT (residues 21–397), a truncation variant that lacks the dynamic N- and C-termini; made in house; host or cells: HEK293F
T1 sequence (P04180 45-421): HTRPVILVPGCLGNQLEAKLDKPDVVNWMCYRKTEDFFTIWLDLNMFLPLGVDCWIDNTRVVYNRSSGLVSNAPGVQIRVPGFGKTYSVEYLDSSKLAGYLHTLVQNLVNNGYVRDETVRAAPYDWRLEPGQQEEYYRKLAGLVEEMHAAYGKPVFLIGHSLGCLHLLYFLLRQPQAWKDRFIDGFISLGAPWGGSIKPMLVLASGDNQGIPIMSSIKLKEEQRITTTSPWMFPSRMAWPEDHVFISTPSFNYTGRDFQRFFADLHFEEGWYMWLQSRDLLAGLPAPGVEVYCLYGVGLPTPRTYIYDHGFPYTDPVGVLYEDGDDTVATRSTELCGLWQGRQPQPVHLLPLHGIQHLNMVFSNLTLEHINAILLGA
Experimental: (§1) Tm values were determined using an Applied Biosystems QuantStudio 7 Flex qPCR machine with two replicates performed at least in triplicate. LCAT at 0.05 mg mL^−1 was diluted into reaction buffer containing 5X Sypro Orange in a final volume of 10 μL in 384-well PCR plates. DMSO or compound 1 was added so that all reactions contained 3% DMSO. The reactions were run from 25–95 °C with a ramp rate of 0.03 °C s^−1. Tm values were determined as the derivative using Protein Thermal Shift software. Significance was determined using a one-way analysis of variance followed by Tukey’s multiple comparisons post-test in GraphPad Prism.

[2] = target: T2, ∆N∆C-LCAT (Homo sapiens, UniProt P04180); assay: Differential scanning fluorimetry; format: binding; conditions: for Thermal stabilization (DSF): ∆N∆C LCAT
T2 construct: ∆N∆C-LCAT (residues 21–397), a truncation variant that lacks the dynamic N- and C-termini; made in house; host or cells: HEK293F
T2 sequence (P04180 45-421): T1 sequence (P04180 45-421)
Experimental: as §1

[3] = target: T3, LPLA2 (Homo sapiens, UniProt Q8NCC3); assay: Differential scanning fluorimetry; format: binding
T3 sequence (Q8NCC3 34-412): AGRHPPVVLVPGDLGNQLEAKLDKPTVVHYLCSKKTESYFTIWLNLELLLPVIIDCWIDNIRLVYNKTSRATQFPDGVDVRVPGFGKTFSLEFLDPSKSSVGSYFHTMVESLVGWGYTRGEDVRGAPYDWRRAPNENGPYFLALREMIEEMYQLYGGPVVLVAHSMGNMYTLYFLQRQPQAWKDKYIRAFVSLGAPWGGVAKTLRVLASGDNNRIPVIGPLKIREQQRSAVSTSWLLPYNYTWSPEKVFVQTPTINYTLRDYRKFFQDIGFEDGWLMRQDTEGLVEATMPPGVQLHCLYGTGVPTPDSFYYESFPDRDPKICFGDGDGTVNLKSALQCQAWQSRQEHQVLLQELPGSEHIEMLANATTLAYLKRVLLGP

[4] = target: T4, LCAT (Homo sapiens, UniProt P04180); assay: Soluble esterase assay (pNPB); format: biochemical; conditions: WT LCAT
T4 construct: hydrolysis of 4-methylumbelliferyl palmitate (MUP) by full-length LCAT; made in house; host or cells: HEK293F (transient transfection, secreted)
T4 sequence (P04180 25-440): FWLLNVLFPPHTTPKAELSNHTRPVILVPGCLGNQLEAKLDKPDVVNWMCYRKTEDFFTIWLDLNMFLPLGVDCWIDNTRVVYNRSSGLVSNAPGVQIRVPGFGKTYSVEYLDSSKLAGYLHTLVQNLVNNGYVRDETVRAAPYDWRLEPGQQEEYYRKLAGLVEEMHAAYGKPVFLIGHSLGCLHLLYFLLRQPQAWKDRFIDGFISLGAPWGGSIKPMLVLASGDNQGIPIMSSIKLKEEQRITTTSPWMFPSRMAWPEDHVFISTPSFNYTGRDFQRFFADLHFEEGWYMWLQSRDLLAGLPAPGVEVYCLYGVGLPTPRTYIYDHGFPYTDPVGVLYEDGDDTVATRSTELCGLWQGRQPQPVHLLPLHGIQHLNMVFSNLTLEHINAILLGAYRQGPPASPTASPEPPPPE
Experimental: (§2) The esterase assay was performed as previously described ([Glukhova et al., 2015]) at least in triplicate. pNPB was diluted to 10 mM into reaction buffer containing 10% dimethylsulfoxide. The reaction was started by addition of 40 μL 1 μM LCAT containing either 3.2% DMSO or 11.1 μM compound 1 to 10 μL of pNPB. The increase in absorbance at 400 nm was monitored on a Spectramax plate reader for 15 min. Significance was determined using a one-way analysis of variance followed by Tukey’s multiple comparisons post-test in GraphPad Prism.

[5] = system: LCAT; assay: Soluble esterase assay (pNPB); format: biochemical, human; conditions: any variant of LCAT
Experimental: as §2

[6] = target: T5, WT LCAT (Homo sapiens, UniProt P04180); assay: MST binding assay; parameters: hydrolysis of 4-methylumbelliferyl palmitate (MUP) by full-length LCAT; made in house; host or cells: HEK293F (transient transfection, secreted)
T5 sequence (P04180 25-440): T4 sequence (P04180 25-440)
Experimental: MST was used to determine the binding affinity of the compounds to LCAT. Recombinant proteins were labeled with a fluorophore using the Monolith His-tag labeling RED-Tris-NTA 2nd Generation kit following manufacturer’s protocol. Compounds were titrated in a two-fold dilution series starting at 20 μM and incubated with the same volume of 100 nM labeled recombinant protein for 5 min at room temperature. Measurements were carried out in PBS containing 0.05% Tween-20 and standard capillaries using a Monolith NT.115 instrument (Nanotemper Technologies) with 50% LED excitation power, 60% MST power, MST on-time of 30 s and off-time of 5 s. Kd values were calculated by fitting the thermophoresis signal at 20 s of the thermograph using MO.AffinityAnalysis software.

Structure (SMILES)	Thermal stabilization (DSF) [1]	∆Tm of ∆N∆C-LCAT ([2]; compound 1 and IDFP combined, additive effect)	Thermal stabilization (DSF) [2]	Thermal stabilization (DSF) [3]	Effect on pNPB esterase activity of WT [4]	Stimulation of pNPB esterase activity [5]	Binding to WT LCAT by MST [6]	Kd ([6]; read-out: Kd, binding to LCAT via microscale thermophoresis) [nM]
N#Cc1cnc(N2CCC(c3n[nH]c4c3C(O)(C(F)(F)F)CC(=O)N4)CC2)cc1C(F)(F)F (stereo not shown) [compound 1, 6-(4-(4-Hydroxy-6-oxo-4-(trifluoromethyl)−4,5,6,7-tetrahydro-1H-pyrazolo[3,4-b]pyridin-3-yl)piperidin-1-yl)−4-(trifluoromethyl)nicotinonitrile]	stabilize	12.7 ˚C	stabilize	not stabilized	seemed to inhibit	did not stimulate	does	100 ± 14
O=C1CC(O)(C(F)(F)F)c2c(C3CCN(c4cnc(C(F)(F)F)cn4)CC3)n[nH]c2N1 (stereo not shown) [compound 2, 4-Hydroxy-4-(trifluoromethyl)−3-(1-(5-(trifluoromethyl)pyrazin-2-yl)piperidin-4-yl)−4,5-dihydro-1H-pyrazolo[3,4-b]pyridin-6(7H)-one]	stabilize	–	stabilize	–	–	–	–	–
O=C1CC(O)(C(F)(F)F)c2c(ncn2C2CCN(c3cnc(C(F)(F)F)cn3)CC2)N1 (stereo not shown) [compound 3, 7-Hydroxy-7-(trifluoromethyl)−1-(1-(5-(trifluoromethyl)pyrazin-2-yl)piperidin-4-yl)−6,7-dihydro-1H-imidazo[4,5-b]pyridin-5(4H)-one]	stabilize	–	stabilize	–	–	–	–	–
O=C1CC(O)(C(F)(F)F)c2c(ncn2C2CCNCC2)N1 (stereo not shown) [compound 6, 7-Hydroxy-1-(piperidin-4-yl)−7-(trifluoromethyl)−6,7-dihydro-1H-imidazo[4,5-b]pyridin-5(4H)-one]	–	–	–	–	–	–	does not bind; also recorded: unable to bind	–
